Measurements as given in patent US20250186463A1, “ABIRATERONE DECANOATE PRODRUGS AND USE IN THERAPY” (PROPELLA THERAPEUTICS, INC., priority 2022, published 2025).
Marks after values point to notes of the source that are not given here.

Test system: serum progesterone
Assay: Phase 1/2a study: serum progesterone
Format: in vivo, human
Experimental: This is a Phase 1/2a, Open-label, Multicenter Study of Intramuscular Abiraterone Decanoate Depot in Patients with Advanced Prostate Cancer.
Formulations and dosing regimen: The formulation used in the study (abiraterone decanoate for intramuscular [i.m.] injection) is a solution formulation of abiraterone decanoate at a concentration of 180 mg/mL and will be provided as a 10 mL vial containing 990 mg of abiraterone decanoate in 5.5 mL of solution. See further details of the formulations in Example 2 (for each milliliter: Abiraterone Decanoate, about 180 mg/mL; Benzyl Alcohol, about 100 mg/mL; Benzyl Benzoate, about 200 mg/mL; and Corn oil, q.s. to 1 mL). Abiraterone Decanoate will be administered as an i.m. injection every 84 days (±3 days). Dose escalation will proceed with a modified Fibonacci sequence. Based on emerging data, intermediate doses may be evaluated.
Study Design: This is a Phase 1/2a, Open-label, Multicenter Study of Intramuscular Abiraterone Decanoate Depot in Patients with Advanced Prostate Cancer. In Phase 1, all patients will receive i.m. Abiraterone Decanoate depot in 84-day treatment cycles combined with daily oral prednisone or dexamethasone. In Phase 2a, patients will be randomized 1:1 and treated with i.m. Abiraterone Decanoate depot in 84-day treatment cycles in combination with dexamethasone (Arm A) or abiraterone acetate daily+prednisone (Arm B). In both Phases, patients will undergo scheduled periodic assessments of serum testosterone levels. Participants may continue treatment until they meet any discontinuation criteria outlined in the protocol.
Pharmacodynamic Analysis: Determination of Prostate Specific Antigen (PSA), serum testosterone, dehydroepiandrosterone (DHEA), dehydroepiandrosterone sulfate (DHEA-S), androstenedione, dihydrotestosterone (DHT), progesterone, cortisol, adrenocorticotropic hormone (ACTH), corticosterone, 11-dexoycorticosterone (11-DOC) and 11-deoxycortisol.
Based on the available data, the recommended dose for Phase 2 is about 1260 mg abiraterone decanoate once every three months (12 weeks). All cohorts 1 and 2 in this clinical study were treated with prednisone, 5 mg orally once or twice daily; and all cohorts 3-5 were treated with dexamethasone, 0.5 mg orally once daily. The results shown herein for these cohorts should be understood accordingly.
See also Table 3B below. […] See also FIG. 11B for the absolute serum progesterone levels for cohorts 4 and 5, with the LLOQ being 1.59 nM. It should be noted that the maximum serum progesterone level observed for cohorts 1-3 is 2.5 nM. FIGS. 3F and 3G show the serum 11-deoxycorticosterone and corticosterone response in cohorts 3, 4, and 5, the trend is similar to that observed for progesterone levels above. See a summary shown in the Table 3C below for the first cycle.

## CCCCCCCCCC(=O)O[C@H]1CC[C@@]2(C)C(=CC[C@@H]3[C@@H]2CC[C@]2(C)C(c4cccnc4)=CC[C@@H]32)C1 [abiraterone decanoate]
Cohort 2, 360 mg i.m., Study Day 168
  Serum Progesterone (% CFB): 0%
Cohort 2, 360 mg i.m., Study Day 252
  Serum Progesterone (% CFB): 0%
Cohort 3, 720 mg i.m., Study Day 1 (baseline)
  Serum Progesterone (% CFB): 0%
Cohort 3, 720 mg i.m., Study Day 14
  Serum Progesterone (% CFB): −1%
Cohort 3, 720 mg i.m., Study Day 28
  Serum Progesterone (% CFB): −2%
Cohort 3, 720 mg i.m., Study Day 56
  Serum Progesterone (% CFB): 0%
Cohort 3, 720 mg i.m., Study Day 84
  Serum Progesterone (% CFB): 0%
Cohort 3, 720 mg i.m., Study Day 168
  Serum Progesterone (% CFB): 6%
Cohort 3, 720 mg i.m., Study Day 224
  Serum Progesterone (% CFB): 0%
Cohort 3, 720 mg i.m., Study Day 252
  Serum Progesterone (% CFB): 0%
Cohort 4, 1260 mg i.m., Study Day 1 (baseline)
  Serum Progesterone (% CFB): 0%
Cohort 4, 1260 mg i.m., Study Day 14
  Serum Progesterone (% CFB): 20%
Cohort 4, 1260 mg i.m., Study Day 28
  Serum Progesterone (% CFB): 35%
Cohort 4, 1260 mg i.m., Study Day 42
  Serum Progesterone (% CFB): 0%
Cohort 4, 1260 mg i.m., Study Day 56
  Serum Progesterone (% CFB): 0%
Cohort 4, 1260 mg i.m., Study Day 70
  Serum Progesterone (% CFB): 22%
Cohort 4, 1260 mg i.m., Study Day 84
  Serum Progesterone (% CFB): 0%
Cohort 4, 1260 mg i.m., Study Day 112
  Serum Progesterone (% CFB): 6%
Cohort 4, 1260 mg i.m., Study Day 140
  Serum Progesterone (% CFB): 0%
Cohort 4, 1260 mg i.m., Study Day 168
  Serum Progesterone (% CFB): 1%
Cohort 4, 1260 mg i.m., Study Day 224
  Serum Progesterone (% CFB): 0%
Cohort 4, 1260 mg i.m., Study Day 252
  Serum Progesterone (% CFB): 0%
Cohort 5, 1800 mg i.m., Study Day 1 (baseline)
  Serum Progesterone (% CFB): 0%
Cohort 5, 1800 mg i.m., Study Day 14
  Serum Progesterone (% CFB): 165%
Cohort 5, 1800 mg i.m., Study Day 28
  Serum Progesterone (% CFB): 86%
Cohort 5, 1800 mg i.m., Study Day 42
  Serum Progesterone (% CFB): 0%
Cohort 5, 1800 mg i.m., Study Day 56
  Serum Progesterone (% CFB): 12%
Cohort 5, 1800 mg i.m., Study Day 70
  Serum Progesterone (% CFB): 0%
Cohort 5, 1800 mg i.m., Study Day 84
  Serum Progesterone (% CFB): 8%
Cohort 5, 1800 mg i.m., Study Day 140
  Serum Progesterone (% CFB): 0%
Cohort 5, 1800 mg i.m., Study Day 168
  Serum Progesterone (% CFB): −7%
Cohort 5, 1800 mg i.m., Study Day 196
  Serum Progesterone (% CFB): 52%
Cohort 5, 1800 mg i.m., Study Day 224
  Serum Progesterone (% CFB): −7%
Cohort 5, 1800 mg i.m., Study Day 252
  Serum Progesterone (% CFB): 0%
Patient 1, cohort 1, 180 mg, FIG. 5
  progesterone change from baseline: no progesterone increase from baseline
Patient 2, cohort 2, 360 mg, FIG. 6
  transient up stream steroid (progesterone) increase from baseline: returned to baseline
All cohorts
  increases of progesterone levels during the second cycle: no significant increases
All cohorts (180-1800 mg)
  progesterone changes from baseline: not significant
Cohort 5 (1800 mg), after first administration
  time at which progesterone level returned to baseline: ~6 week
Cohorts 1-3 (180, 360, 720 mg)
  maximum serum progesterone level observed: 2.5 nM
Patient 02-1403, Cohort 4, 1260 mg, mCRPC, Visit C4D28, assay LLOQ = 1.59 nM
  Progesterone at Visit Day (nM): <LLOQ
Patient 02-1405, Cohort 4, 1260 mg, mCRPC, Visit C1D56, assay LLOQ = 1.59 nM
  Progesterone at Visit Day (nM): <LLOQ
Patient 02-1504, Cohort 5, 1800 mg, mCRPC, Visit C1D28, assay LLOQ = 1.59 nM
  Progesterone at Visit Day (nM): <LLOQ
Patient 04-1406, Cohort 4, 1260 mg, mCSPC, Visit C1D56, average of Day 28 and Day 70 values
  Progesterone at Visit Day (nM): 2.90† nM
Patient 04-1503, Cohort 5, 1800 mg, mCSPC, Visit C1D84, assay LLOQ = 1.59 nM
  Progesterone at Visit Day: 2.54 nM
Patient 04-1506, Cohort 5, 1800 mg, mCRPC, Visit C1D28, assay LLOQ = 1.59 nM
  Progesterone at Visit Day (nM): <LLOQ
Patient 06-1401, Cohort 4, 1260 mg, mCRPC, Visit C3D84, assay LLOQ = 1.59 nM
  Progesterone at Visit Day (nM): <LLOQ
Patient 06-1402, Cohort 4, 1260 mg, mCRPC, Visit C4D28, assay LLOQ = 1.59 nM
  Progesterone at Visit Day (nM): <LLOQ
Patient 06-1404, Cohort 4, 1260 mg, mCSPC, Visit C2D84, assay LLOQ = 1.59 nM
  Progesterone at Visit Day (nM): <LLOQ
Patient 06-1501, Cohort 5, 1800 mg, mCRPC, Visit C1D84, assay LLOQ = 1.59 nM
  Progesterone at Visit Day (nM): <LLOQ
Patient 06-1502, Cohort 5, 1800 mg, mCSPC, Visit C2D84, assay LLOQ = 1.59 nM
  Progesterone at Visit Day (nM): <LLOQ
